Data reported in patent publication US10722586B2, “Filmogenic compositions for topical anaesthetic bioadhesives—tabs, for controlled release of active principles and topical anaesthetic bioadhesives” (UNIVERSIDADE FEDERAL DE PELOTAS, priority 2014, dated 2020).

Test system: cell line of mouse fibroblasts (NIH/3T3)
Assay: Cytotoxicity test (MTT, ISO 10993) on NIH/3T3 fibroblasts
Assay type: cell-based
Conditions: absorbance at 540 nm, mean (±SD)
Description: The cytotoxicity of the products of the invention is evaluated with the cell line of mouse fibroblasts (NIH/3T3).
The test is performed according to ISO 10993 (2009). The cell suspension is plated at a concentration of 2×10^4 cells per well and delivered into a cell culture dish of 96 wells. Each well receives 200 μl DMEM (Dulbecco's Modified Eagle Medium) supplemented with 10% Fetal Bovine Serum. The plate is then incubated at 37° C. in an atmosphere containing 5% CO2 for 24 hours. In control wells, 200 μl DMEM (Dulbecco's Modified Eagle Medium) is supplemented with fetal bovine serum 10%. After removal of the test extracts, 200 μl PBS (phosphate buffered saline) and 20 μl of MTT (tetrazolium salt [3-(4,5-dimetltiazol-2-yl)-2,5-diphenyltetrazolium bromide] are added to each well. The plate is incubated in a room without light for 24 hours at 37° C. After that, MTT is aspirated and 200 μl dimethylsulfoxide (DMSO) is added to each well. Thereafter, absorbance at 540 nm is measured using a spectrophotometer and the results were analyzed statistically.
The data are tabulated and submitted to Kruskal-Wallis nonparametric statistical analysis and Tukey's complementary test (p<0.05).
The results of cytotoxicity testing are illustrated in FIG. 10.

Structure (SMILES): CCOC(=O)c1ccc(N)cc1 [Example P20, benzocaine]
- ABSORBANCE (540 nm): 0.511 (±0.032)^A
